Measured values taken from patent publication US9486440B2, “Uses of indole-ketones or indolidones as neuro-protective drugs” (UNIVERSITY OF MACAU, priority 2011, dated 2016).
Entries after “also recorded” stand apart in the source; their conditions may differ.

Tests used:
[1] = system: zebrafish larvae; experiment: Locomotion behavioral test of zebrafish larvae; assay type: in vivo; conditions: for MPTP-induced deficit of swimming behavior (total distance travelled): 200 μM MPTP 2 days, then 10 μM MPTP plus drug 3 days, L-deprenyl 20 μM, L-dopa 150 μM
Description: (§1) Wild-type zebrafish (AB strain) and Tg (fli-1:EGFP) transgenic zebrafish were maintained as described in the Zebrafish Handbook (Westerfield, 1993). Zebrafish embryos were generated by natural pair-wise mating (3-12 months old) and raised at 28.5° C. in embryo medium (13.7 mM NaCl, 540 μM KCl, pH 7.4, 25 μM Na2HPO4, 44 μM KH2PO4, 300 μM CaCl2, 100 μM MgSO4, 420 μM NaHCO3, pH 7.4). […] An equal concentration of DMSO in embryo medium was used as vehicle control in each experiment.
Thus the MPTP exposure needs to last 5 day from 1 dpf. […] Thus subsequent locomotion behavioral studies were done with 200 μM MPTP for treatment for 2 days at 1 dpf then replacing insult with 10 μM MPTP for incubation for another 3 days.
(§2) After drug treatment, zebrafish larvae at 6 dpf were transferred into 96-well plates (1 fish/well and 12 larvae/group). Fishes responded with excessive stress reaction (such as rapid and disorganized swimming or immobility for 2 min) due to the handling and monitoring of the behavior were discarded. The experiments were performed in a calm enclosed area. The larvae were allowed to habituate to the new environment for 30 min prior to experiments. Behavior was monitored by an automated video tracking system (Viewpoint, ZebraLab, LifeSciences). The 96-well plates and camera were housed inside a Zebrabox and the swimming pattern of each fish was recorded for 10 min and repeated 3 times, once every other 10 min. The total distance moved was defined as the distance (in cm) that the fish had moved during one session (10 min).
Normally as late as 3 dpf, zebrafish larvae show very little spontaneous swimming, but by 5 dpf they spontaneously swim longer distances and independently search for food. The MPTP exposure therefore needs to last 5 days from 1 dpf. […] Thus subsequent locomotion behavioral studies were performed with 200 μM MPTP for 2-day treatment at 1 dpf then replacing with media containing 10 μM MPTP for another 3-day incubation.
as §2, with “The larvae were discarded due to” for “Fishes responded with”, “reaction to the handling and monitoring of behavior” for “reaction”, “min).” for “min) due to the handling and monitoring of the behavior were discarded.”, “sealed” for “enclosed”, “min. Swimming behavior” for “min prior to experiments. Behavior”, “for” for “repeated”

[2] = system: intersegmental-vessel (ISV) formation; experiment: Intersegmental-vessel formation in Tg(fli-1:EGFP) zebrafish; assay type: in vivo; conditions: 1 dpf embryos treated 48 hours; SU4312 3-30 μM, PTK787/ZK222584 0.3-3 μM, VRI 0.1-0.3 μM, SU5416 0.3-1 μM
Description: as §1
(§3) After drug treatment, zebrafish were removed from microplate and observed for gross morphological changes of blood vessel under a fluorescence microscope (Olympus am Motorized Inverted Microscope, Japan) equipped with a digital camera (DP controller, Soft Imaging System, Olympus). Images were analyzed with Axiovision 4.2 and Adobe Photoshop 7.0.
Wild-type zebrafish (AB strain) and Tg(fli-1:EGFP) transgenic zebrafish were maintained as described in the Zebrafish Handbook (Westerfield, 1993). Zebrafish embryos were generated by natural pair-wise mating (3-12 months old) and were raised at 28.5° C. in embryo medium (13.7 mM NaCl, 540 μM KCl, pH 7.4, 25 μM Na2HPO4, 44 μM KH2PO4, 300 μM CaCl2, 100 μM MgSO4, 420 μM NaHCO3, pH 7.4). […] Equal concentration of DMSO in embryo medium was used as vehicle control in each experiment.
as §3, with “from the” for “from”

## Cc1cc(C)c(/C=C2\C(=O)Nc3ccccc32)[nH]1 [SU5416, (3Z)-3-[(3,5-dimethyl-1H-pyrrol-2-yl)methylidene]-1,3-dihydro-2H-indol-2-one]
[1]
  MPTP-induced deficit of swimming behavior (total distance travelled): ameliorated the MPTP-induced deficit of swimming behavior
[2]
  inhibition of intersegmental-vessel (ISV) formation: did not show this activity

## CN(C)c1ccc(C=C2C(=O)Nc3ccccc32)cc1 [SU4312, 3-[4-(dimethylamino)benzylidenyl]indolin-2-one]
[1]
  MPTP-induced deficit of swimming behavior (total distance travelled): ameliorated MPTP-induced deficit of swimming behavior
[1]; without MPTP
  swimming behavior of normal zebrafish larvae, drug alone: Neither SU4312 nor PTK787/ZK222584 treatment alone notably altered the swimming behavior
[2]
  inhibition of intersegmental-vessel (ISV) formation: showed differential concentration-dependent inhibition of ISV formation

## Clc1ccc(Nc2nnc(Cc3ccncc3)c3ccccc23)cc1 [PTK787/ZK222584]
[1]
  MPTP-induced deficit of swimming behavior (total distance travelled): but not PTK787/ZK222584 ameliorated MPTP-induced deficit of swimming behavior
[1]; zebrafish, in vivo
  swimming behavior of normal zebrafish larvae, drug alone: Neither SU4312 nor PTK787/ZK222584 treatment alone notably altered the swimming behavior
[2]
  inhibition of intersegmental-vessel (ISV) formation: showed differential concentration-dependent inhibition of ISV formation; also recorded: at 1 μM inhibited angiogenesis with the potency similar to that of SU4312 at 30 μM
